The source of these data is ChEMBL document CHEMBL4602695, “Discovery and SARs of 5-Chloro-N4-phenyl-N2-(pyridin-2-yl)pyrimidine-2,4-diamine Derivatives as Oral Available and Dual CDK 6 and 9 Inhibitors with Potent Antitumor Activity” (J Med Chem, 2020).

As usually defined, the inhibition is the change of the read-out against control, counted positive when it falls. As a reminder, the GI50 is the concentration giving 50% growth inhibition.

Active and inactive are the calls of the source. The calls are words filed in the database; no cut-off is given here.

The test system of data set [1] is MDA-MB-231. The data set can be described thus: Effect on CDK6 expression in human MDA-MB-231 cells at 4 to 12 uM measured after 48 hrs by Western blot analysis. The format is functional, cell-based. In general terms: A western blot detects proteins with antibodies after separation by electrophoresis.
The test system of data set [2] is MDA-MB-231. The data set can be described thus: Induction of apoptosis in human MDA-MB-231 cells xenografted in BALB/c nu/nu mouse assessed as increase in cytoplasm shrinkage at 22.5 to 90 mg/kg, po administered once daily for 3 weeks measured post-last dose by H and E staining based histopathological analysis. The format is functional, organism-based.
Data set [3] deals with CDK9/cyclin T1 (Homo sapiens) (UniProt O60563+P50750). The data set can be described thus: Binding affinity to recombinant His-tagged CDK9/cyclin T1 (unknown origin) expressed in HEK293T cells assessed as thermal stabilization of protein at 10 uM measured for 3 mins at 57 degC by CETSA. It is filed as cell-based. To be noted: HEK-293T.
The target in data set [4] is Cyclin-dependent kinase 9 (Homo sapiens) (UniProt P50750). The data set can be described thus: Inhibition of CDK9 in human MDA-MB-231 cells assessed as reduction in Mcl-1 mRNA level at 4 to 12 uM by trizol reagent based qRT-PCR analysis. The format is cell-based.
Sequence of Cyclin-dependent kinase 9 (Homo sapiens) (P50750 whole entry): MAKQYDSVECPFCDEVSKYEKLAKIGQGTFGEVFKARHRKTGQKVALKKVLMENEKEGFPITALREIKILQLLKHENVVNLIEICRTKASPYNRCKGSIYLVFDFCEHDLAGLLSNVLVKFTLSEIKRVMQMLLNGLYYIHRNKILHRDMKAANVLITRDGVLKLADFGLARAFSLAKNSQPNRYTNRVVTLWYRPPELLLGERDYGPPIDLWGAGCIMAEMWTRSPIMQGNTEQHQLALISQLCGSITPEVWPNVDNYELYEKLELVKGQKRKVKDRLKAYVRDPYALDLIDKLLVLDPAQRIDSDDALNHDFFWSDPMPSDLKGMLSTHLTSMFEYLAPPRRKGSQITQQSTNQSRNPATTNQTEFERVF
Data set [5] shares this target. The data set can be described thus: Inhibition of CDK9 in human MDA-MB-231 cells assessed as down regulation of p-Pol II CTD S2 expression at 4 to 12 uM measured after 48 hrs by Western blot analysis. It is filed as cell-based.
Data set [6] relates to MDA-MB-231. The experiment in a line: Effect on CDK9 expression in human MDA-MB-231 cells at 4 to 12 uM measured after 48 hrs by Western blot analysis. It is filed as functional, cell-based.
Data set [7] has as its target CDK3/Cyclin E (Homo sapiens) (UniProt P24864+Q00526). To be noted: Sf9, 1 uM.
Data set [8] relates to MDA-MB-231. The data set can be described thus: Induction of apoptosis in human MDA-MB-231 cells xenografted in BALB/c nu/nu mouse assessed as increase in intracellular space at 22.5 to 90 mg/kg, po administered once daily for 3 weeks measured post-last dose by H and E staining based histopathological analysis. It is filed as functional, organism-based. (In general: Xenograft models place foreign cells or tissue in a host animal.)

Data set [9] addresses Cyclin-C/Cyclin-dependent kinase 19 (Homo sapiens) (UniProt Q9BWU1+P24863). The experiment in a line: Inhibition of recombinant human GST-tagged/His-tagged CDK11 (1 to 502 residues)/cyclinC (1 to 283 residues) expressed in insect cells at 1 uM using PAK1 (148 to 210 residues) as substrate measured after 10 to 60 mins by ADP-glo assay relative to control. On the technique in general: In ADP-Glo the light output rises with the ADP produced.

The subject of data set [10] is MDA-MB-231. The data set can be described thus: Induction of apoptosis in human MDA-MB-231 cells xenografted in BALB/c nu/nu mouse assessed as increase in nucleoplasm staining at 22.5 to 90 mg/kg, po administered once daily for 3 weeks measured post-last dose by H and E staining based histopathological analysis. It is filed as functional, organism-based.
Data set [11] concerns MDA-MB-231. The data set can be described thus: Antitumor activity against human MDA-MB-231 cells xenografted in po dosed BALB/c nu/nu mouse assessed as tumor growth inhibition administered once daily for 3 weeks and measured at 3 days interval during compound dosing. It is filed as functional, organism-based.
For data set [12], the target named is CDK6/cyclin D3 (Homo sapiens) (UniProt P30281+Q00534). The data set can be described thus: Binding affinity to recombinant His-tagged CDK6/cyclin D3 (unknown origin) expressed in HEK293T cells assessed as thermal stabilization of protein at 10 uM measured for 3 mins at 57 degC by CETSA. The format is cell-based. The settings on record: HEK-293T.
Data set [13] concerns the target Cyclin-dependent kinase 6 (Homo sapiens) (UniProt Q00534). The experiment in a line: Inhibition of CDK6 in human MDA-MB-231 cells assessed as down regulation of p-Rb expression at 4 to 12 uM measured after 48 hrs by Western blot analysis. It is filed as cell-based.
The target of data set [14] is Cyclin-dependent kinase 9 (Homo sapiens) (UniProt P50750). The data set can be described thus: Inhibition of CDK9 in human MDA-MB-231 cells assessed as reduction in c-Myc mRNA level at 4 to 12 uM by trizol reagent based qRT-PCR analysis. It is filed as cell-based.
Data set [15] deals with Cyclin-dependent kinase 6 (Homo sapiens) (UniProt Q00534). The data set can be described thus: Inhibition of CDK6 in human MDA-MB-231 cells assessed as down regulation of E2F1 expression at 4 to 12 uM measured after 48 hrs by Western blot analysis. The format is cell-based.
Sequence of Cyclin-dependent kinase 6 (Homo sapiens) (Q00534 whole entry): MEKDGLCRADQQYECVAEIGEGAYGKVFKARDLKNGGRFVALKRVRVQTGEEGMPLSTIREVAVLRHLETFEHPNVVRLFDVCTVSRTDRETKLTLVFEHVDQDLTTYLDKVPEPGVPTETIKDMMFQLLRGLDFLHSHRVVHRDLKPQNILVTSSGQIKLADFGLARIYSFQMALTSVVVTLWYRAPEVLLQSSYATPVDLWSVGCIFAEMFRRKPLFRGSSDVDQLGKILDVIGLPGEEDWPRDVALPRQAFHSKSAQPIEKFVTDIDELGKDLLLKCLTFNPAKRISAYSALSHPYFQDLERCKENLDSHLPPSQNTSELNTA
The subject of data set [16] is MDA-MB-231. The data set can be described thus: Induction of intracellular reactive oxygen species production in human MDA-MB-231 cells measured after 48 hrs by DCFH-DA probe based flow cytometry. It is filed as functional, cell-based.
Data set [17] deals with Cyclin-dependent kinase 9 (Homo sapiens) (UniProt P50750). The experiment in a line: Inhibition of CDK9 in human MDA-MB-231 cells assessed as down regulation of cyclin T1 expression at 4 to 12 uM measured after 48 hrs by Western blot analysis. The format is cell-based.
In the next data set the test system is MCF7. The data set can be described thus: Antiproliferative activity against human MCF7 cells assessed as inhibition of cell proliferation measured after 48 hrs by CCK8 assay. To be noted: MCF7, 48 h. It is filed as functional, cell-based.
Data set [18] can be described thus: Cytotoxicity against human L02 cells assessed as inhibition of cell proliferation measured after 48 hrs by CCK8 assay. The format is cell-based.
The subject of data set [19] is MDA-MB-231. The experiment in a line: Cell cycle arrest in human MDA-MB-231 cells assessed as accumulation at S phase at 20 uM measured after 48 hrs by propidium iodide staining based flow cytometry (reference value: 26.45%). It is filed as functional.
Data set [20] deals with MDA-MB-231. The experiment in a line: Induction of apoptosis in human MDA-MB-231 cells assessed as necrotic cells at 20 uM measured after 48 hrs by Annexin V-FITC/propidium iodide staining based flow cytometry (0.498%). The format is functional.
The next data set has as its system Jurkat. The data set can be described thus: Antiproliferative activity against human Jurkat cells assessed as inhibition of cell proliferation measured after 48 hrs by CCK8 assay. It is filed as functional, cell-based.
In data set [21] the test system is MDA-MB-231. The experiment in a line: Cell cycle arrest in human MDA-MB-231 cells assessed as accumulation at G2/M phase at 20 uM measured after 48 hrs by propidium iodide staining based flow cytometry (reference value: 15.9%). It is filed as functional.
Data set [22] relates to MDA-MB-231. The data set can be described thus: Cell cycle arrest in human MDA-MB-231 cells assessed as accumulation at G0/G1 phase at 20 uM measured after 48 hrs by propidium iodide staining based flow cytometry (reference value: 57.65%). It is filed as functional.
The test system of data set [23] is MDA-MB-231. The experiment in a line: Induction of apoptosis in human MDA-MB-231 cells assessed as early apoptotic cells at 20 uM measured after 48 hrs by Annexin V-FITC/propidium iodide staining based flow cytometry (0.877%). It is filed as functional.
The subject of data set [24] is MDA-MB-231. The experiment in a line: Induction of apoptosis in human MDA-MB-231 cells assessed as late apoptotic cells at 20 uM measured after 48 hrs by Annexin V-FITC/propidium iodide staining based flow cytometry (2.78%). The format is functional.
The test system of data set [25] is MDA-MB-231. The data set can be described thus: Induction of apoptosis in human MDA-MB-231 cells assessed as viable cells at 20 uM measured after 48 hrs by Annexin V-FITC/propidium iodide staining based flow cytometry (95.8%). The format is functional. To be noted: MDA-MB-231, 48 h, read-out: Activity.
For data set [26], the system named is MDA-MB-231. The data set can be described thus: Antiproliferative activity against human MDA-MB-231 cells assessed as inhibition of cell proliferation measured after 48 hrs by CCK8 assay. The settings on record: MDA-MB-231, 48 h. It is filed as functional, cell-based.

Sequence of CDK3/Cyclin E (Homo sapiens) (P24864 whole entry, looked up): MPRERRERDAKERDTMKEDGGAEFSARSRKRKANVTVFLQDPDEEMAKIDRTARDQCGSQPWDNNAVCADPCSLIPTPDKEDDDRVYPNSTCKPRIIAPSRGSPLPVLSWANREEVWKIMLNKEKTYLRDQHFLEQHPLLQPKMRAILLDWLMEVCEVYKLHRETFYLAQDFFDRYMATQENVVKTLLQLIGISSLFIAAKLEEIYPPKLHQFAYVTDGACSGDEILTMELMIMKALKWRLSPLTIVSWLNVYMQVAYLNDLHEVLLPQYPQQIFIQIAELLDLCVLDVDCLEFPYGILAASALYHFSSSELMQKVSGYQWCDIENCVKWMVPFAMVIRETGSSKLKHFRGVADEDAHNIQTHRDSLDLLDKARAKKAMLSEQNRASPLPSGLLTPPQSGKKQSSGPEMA
Sequence of CDK3/Cyclin E (Homo sapiens) (Q00526 whole entry, looked up): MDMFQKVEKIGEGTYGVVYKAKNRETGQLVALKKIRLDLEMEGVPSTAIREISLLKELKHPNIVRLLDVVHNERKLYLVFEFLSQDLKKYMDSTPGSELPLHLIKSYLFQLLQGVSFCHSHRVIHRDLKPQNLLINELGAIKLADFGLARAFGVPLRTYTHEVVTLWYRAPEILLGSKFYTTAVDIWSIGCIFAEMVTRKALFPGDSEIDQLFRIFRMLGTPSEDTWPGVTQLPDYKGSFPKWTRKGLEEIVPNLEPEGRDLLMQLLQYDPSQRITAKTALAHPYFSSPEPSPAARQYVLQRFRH

As for `CC(=O)Nc1cccc(Nc2nc(Nc3ccc(N4CCN(C)CC4)cn3)ncc2Cl)c1`, the result in the data set on MDA-MB-231 [1] and with MDA-MB-231 [6] was inactive. Moreover, the outcome (with MDA-MB-231 [2]; in [3]; in the data set with MDA-MB-231 [8]; with MDA-MB-231 [10]; in data set [12]) was Active. Also, the inhibition result in data set [4], in data set [5], in [13], in [14], in [15] and in data set [17] was “Active” throughout. The inhibition in data set [7] and in data set [9] was below 6.6% each time. Moreover, in the data set with MDA-MB-231 [11], the TGI entry is “Dose-dependent effect”. Moreover, the Activity entry in the data set on MDA-MB-231 [16] is “Dose-dependent effect”.

On to `CC(=O)c1c(C)c2cnc(Nc3ccc(N4CCNCC4)cn3)nc2n(C2CCCC2)c1=O` [PALBOCICLIB], for which the GI50 in the data set on MCF7, in the data set with Jurkat and with MDA-MB-231 [26] was above 100 µM each time. Also, in [18], the GI50 at 48 h is above 100 µM. Besides, the Activity with MDA-MB-231 [19] is reported as 4.98%; in the data set on MDA-MB-231 [20], 2.32%; in the data set on MDA-MB-231 [21] it was 3.12%; in the data set on MDA-MB-231 [22], 91.91%; in the data set with MDA-MB-231 [23], 3.43%; in the data set on MDA-MB-231 [24], 5.26%. In addition, the viability at 20 µM in the data set on MDA-MB-231 [25] turned out to be 89%.
